Test results from PMC5694373 (European journal of pharmaceutical sciences : official …, 2017).
Values joined by “and” are separate entries in the source; they are usually repeats but may differ in a detail not shown here. Identical values can stand only once.

Legend:
[1] = target: neuraminidase of zanamivir-resistant seasonal 2008 H1N1 A/Brazil/1633/2008 [Q136K] (BZ/08-Q136K) (Influenza A virus, UniProt A4GBY0, Q136K); format: biochemical
[2] = target: neuraminidase of oseltamivir-resistant pandemic 2009 H1N1 A/Hong Kong/2369/2009 [H275Y] (HK/09-H275Y) (Influenza A virus, UniProt C6KQ69); assay: biochemical; format: biochemical
[3] = test system: mixture of 99% MX/09 and 1% oseltamivir-resistant HK/09-H275Y; format: cell-based, influenza A virus H1N1
[4] = test system: HK/09-H275Y subpopulation in 99% MX/09 + 1% HK/09-H275Y infection; format: cell-based, influenza A virus H1N1
[5] = test system: oseltamivir-resistant HK/09-H275Y influenza; format: cell-based, influenza A virus H1N1

Compound | IC50 values (95% Confidence Interval) [1] | IC50 values (95% Confidence Interval) [2] | effect on viral burden relative to no-treatment control [3] | HK/09-H275Y subpopulations [4] | IC50 [2] [pM] | reduction of peak viral titers [5] | viral burden lower than the no-treatment control [3]
Oseltamivir carboxylate | 0.0028 (0.0005 – 0.0051) ng/ml | 15.30 (10.16 – 20.44) ng/ml | peak viral load equivalent to that of the no-treatment control by 72 h | 76% and 83% | – | – | –
CC(=O)N[C@H]1[C@H]([C@H](O)[C@H](O)CO)OC(C(=O)O)=C[C@@H]1N=C(N)N [Zanamivir, zanamivir] | – | – | – | – | 7.22 | approximately 4 log10 PFU/ml | at least 2 log10
